Values quoted from earlier work, collected in patent US11116842B2, “Methylene blue complex for treating skin disease and its use thereof” (D. R. NANO Co., Ltd., priority 2017, dated 2021).

System: skin disease such as acne
Details: for side effect in a long-term application: background art

Row | SMILES | side effect in a long-term application | Light protection time after operation (prior-art photosensitizers) | Treatment effect (prior-art photosensitizers)
1 | NCC(=O)CCC(=O)O [ALA, 5-aminolevulinic acid] | xeroderma | T > 30 hr | strong
2 | COC(=O)CCC(=O)CN [MAL, Methyl-aminolevulinate] | xeroderma | – | –
